Assay [1] deals with MOLM-13 cells. Put plainly: Cell growth inhibition, AML cell line MOLM-13 (CyQuant, day 7). The class given is cell-based. The conditions noted are these: for GI50: Homo sapiens.
In assay [2] the target is KAT2A (Homo sapiens, UniProt Q92830). The assay can be described thus: Western blot of KAT2A in NCI-H1048 tumors, 168 hours post last dose. Type of assay: in vivo. Details: degrader, Western blot. The conditions noted are these: FIG. 1 (F). Here is the method: (§1) FIG. 1. Provided compounds can provide various activities including inhibiting tumor growth in vivo. (A): Provided compounds can inhibit tumor growth in vivo. Nude Balb/c mice were inoculated with NCI-H1048 cells in Matrigel. Tumors were allowed to grow up to about 200 mm^3 and mice were then randomized into two groups. Mice were dosed intraperitoneally (i.p.) once per week with vehicle or 30 mg/kg compound 22. Tumor size was measured every three to four days and mice were sacrificed once vehicle tumors reached 2000 mm^3. Error bar is SEM. Dosing started at day 17 post tumor inoculation. (B): Provided technologies can reduce KAT2A and KAT2B levels and histone acetylation levels. […] Vehicle is DMSO. […] Cell count data relative to DMSO control after 8 days of treatment with compound 22 are presented as examples to confirm inhibition. GI50=6 nM. (D): Provided technologies can inhibit tumor growth in vivo. Nude balb/c mice inoculated with H1048 tumors were dosed intraperitoneally once per week (qw i.p.) with vehicle (HbCD) or compound 22. Average tumor volumes+/−SEM from 6 mice are represented. […] See also (A). […] Certain body weights relative to starting weight are presented as examples to confirm tolerability and safety. (F): Provided technologies can reduce KAT2A and KAT2B levels and histone acetylation levels in tumor in vivo. […]
KAT2A, sequence (Q92830 whole entry): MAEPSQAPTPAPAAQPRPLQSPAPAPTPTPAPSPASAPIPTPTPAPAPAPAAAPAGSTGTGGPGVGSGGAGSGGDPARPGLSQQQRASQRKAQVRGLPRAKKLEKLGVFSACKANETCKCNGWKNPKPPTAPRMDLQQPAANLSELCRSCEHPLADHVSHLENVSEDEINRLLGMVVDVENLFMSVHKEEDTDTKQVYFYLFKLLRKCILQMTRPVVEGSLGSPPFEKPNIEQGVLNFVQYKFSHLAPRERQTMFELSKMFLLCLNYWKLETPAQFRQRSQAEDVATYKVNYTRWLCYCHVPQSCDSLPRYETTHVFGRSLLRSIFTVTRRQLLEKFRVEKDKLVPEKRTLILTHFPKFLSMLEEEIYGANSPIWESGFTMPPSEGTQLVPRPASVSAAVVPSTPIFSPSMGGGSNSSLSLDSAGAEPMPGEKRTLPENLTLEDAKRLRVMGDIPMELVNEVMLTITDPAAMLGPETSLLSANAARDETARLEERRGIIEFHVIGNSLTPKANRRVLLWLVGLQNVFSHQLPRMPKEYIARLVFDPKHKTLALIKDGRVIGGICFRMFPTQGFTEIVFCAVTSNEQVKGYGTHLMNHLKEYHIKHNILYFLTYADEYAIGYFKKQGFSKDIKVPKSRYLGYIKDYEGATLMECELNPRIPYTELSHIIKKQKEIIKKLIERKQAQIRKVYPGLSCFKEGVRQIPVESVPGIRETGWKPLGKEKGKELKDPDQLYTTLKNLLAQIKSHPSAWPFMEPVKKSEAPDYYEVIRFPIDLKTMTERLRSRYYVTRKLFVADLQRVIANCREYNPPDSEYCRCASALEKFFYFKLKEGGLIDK
For orientation: Immunoblotting shows a protein as a band on a membrane.

Assay [3] deals with epithelial GSEA. Put plainly: Epithelial GSEA in LASCPC-01 cells. The class given is cell-based. Particulars: LASCPC-01 cells as compared to DMSO; FIG. 3 (C). Here is the method: (§2) FIG. 3. Provided compounds can provide various activities. (A): Provided technologies can reduce KAT2A and KAT2B levels and histone acetylation levels. […] Cell viability (Cell Titer Glo) data relative to DMSO control after 7 days of treatment with compound 22 are presented as examples to confirm inhibition. GI50=5 nM. (C): Provided technologies can modulate cell states and induce differentiation. […] (D): Provided technologies can reduce KAT2A and KAT2B levels and histone acetylation levels including in neuroendocrine prostate cancer primary patient organoid. […] Concentrations are nM. […] Cell viability data relative to DMSO control after 21 days of treatment with compound 22 are presented as examples to confirm inhibition. GI50=3 nM. (F): Provided technologies can modulate cell states and induce differentiation.

For assay [4], the system named is microglial GSEA. The assay can be described thus: Microglial GSEA in NEPC primary patient organoid. Type of assay: cell-based. Particulars: both epithelial and neural components; FIG. 3 (F). As for the experimental part:
as §2

In assay [5] the target is T1, KAT2B (Homo sapiens, UniProt Q92831). Put plainly: Western blot of KAT2B level in NCI-H1048 cells, 24 h. The class given is cell-based. Particulars: various concentrations, FIG. 1 (B). Details: degrader, Western blot. As for the experimental part:
as §1

For assay [6], the system named is histone acetylation. Put plainly: Western blot of histone acetylation in NCI-H1048 cells, 24 h. The conditions noted are these: various concentrations, FIG. 1 (B). Type of assay: cell-based. Here is the method: as §1
Assay [7] addresses T1, KAT2B. Put plainly: Western blot of KAT2B in NCI-H1048 tumors, 168 hours post last dose. The class given is in vivo. Further details: degrader, Western blot. Particulars: FIG. 1 (F). Here is the method: as §1
For assay [8], the target named is T1, KAT2B. The assay can be described thus: Western blot of KAT2B level in neuroendocrine prostate cancer LASCPC-01 cells, 24 hours. Type of assay: cell-based. Further details: degrader, Western blot. The conditions noted are these: FIG. 3 (A). As for the experimental part: as §2
Assay [9] has as its system NCI-H1048 tumors. Put plainly: Tumor growth inhibition in nude Balb/c mice bearing NCI-H1048 tumors. Particulars: 30 mg/kg, once per week i.p.; average tumor volumes from 6 mice; FIG. 1 (D). The class given is in vivo. As for the experimental part:
as §1

Assay [10] has as its system histone acetylation. The assay can be described thus: Western blot of histone acetylation in NEPC primary patient organoid, 72 hours. The class given is cell-based. Particulars: FIG. 3 (D). As for the experimental part:
as §2

Assay [11] relates to CD86 in MOLM-13 cells. Put plainly: Flow cytometry for CD86 (monocytic differentiation) in MOLM-13. The class given is cell-based. The conditions noted are these: FIG. 2. As for the experimental part: In some assessments, flow cytometry was utilized to assess levels of cells expressing certain polypeptides. For example, for flow cytometry for CD86 in MOLM-13, MOLM13 cells were stained with Live/Dead solution (Fixable Live/Dead NIR 1:100 in PBS) at RT, in the dark, for 20 min and then washed once with cell staining solution. The cells were then blocked with Human Fc Blocker solution at RT for 8 mins. Then they were labeled with CD86-APC R700 (565149, BD) (2.5 uL/test) on ice for 30 min in the dark. Following incubation, cells were washed once with cell staining solution. Flow cytometric acquisition was done on BD Celesta flow cytometer (BD Biosciences) and analyses were performed using Flow-Jo software.
(A flow cytometer gives signals particle by particle.)

Where two headings read alike, the source gives them in different places.

T1 sequence (Q92831 whole entry): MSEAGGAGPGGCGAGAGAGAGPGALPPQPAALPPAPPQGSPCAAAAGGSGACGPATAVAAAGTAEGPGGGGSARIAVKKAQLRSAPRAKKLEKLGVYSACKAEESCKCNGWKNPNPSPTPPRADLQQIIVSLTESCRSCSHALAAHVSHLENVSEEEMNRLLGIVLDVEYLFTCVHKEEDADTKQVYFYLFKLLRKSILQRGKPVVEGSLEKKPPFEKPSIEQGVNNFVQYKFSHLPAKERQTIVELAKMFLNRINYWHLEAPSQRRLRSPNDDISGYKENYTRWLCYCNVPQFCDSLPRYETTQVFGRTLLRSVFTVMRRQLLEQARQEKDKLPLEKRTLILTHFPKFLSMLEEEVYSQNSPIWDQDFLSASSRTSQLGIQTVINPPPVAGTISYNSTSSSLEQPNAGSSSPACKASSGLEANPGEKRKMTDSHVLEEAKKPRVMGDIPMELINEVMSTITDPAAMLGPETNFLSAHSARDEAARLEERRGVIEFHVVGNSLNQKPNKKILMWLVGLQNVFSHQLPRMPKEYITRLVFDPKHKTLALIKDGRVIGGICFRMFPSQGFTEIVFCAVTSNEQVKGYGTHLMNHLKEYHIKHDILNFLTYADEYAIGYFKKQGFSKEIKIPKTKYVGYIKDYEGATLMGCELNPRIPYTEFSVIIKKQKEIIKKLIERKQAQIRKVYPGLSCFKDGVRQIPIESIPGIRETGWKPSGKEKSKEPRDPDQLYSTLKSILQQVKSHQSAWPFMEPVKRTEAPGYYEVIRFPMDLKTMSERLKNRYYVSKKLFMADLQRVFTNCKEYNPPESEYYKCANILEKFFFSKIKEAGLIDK

As usually defined, the GI50 is the concentration that inhibits growth by half. Turning to `CN1C[C@H](Nc2cnn(C)c(=O)c2Br)C[C@H](c2ccc(C(=O)N3CCC(CN4CCN(c5ccc6c(c5)CN(C5CCC(=O)NC5=O)C6=O)CC4)CC3)cc2)C1` (stereo partly drawn) [Compound 22, 3-(5-(4-((1-(4-((3R,5R)-5-((5-bromo-1-methyl-6-oxo-1,6-dihydropyridazin-4-yl)amino)-1-methylpiperidin-3-yl)benzoyl)piperidin-4-yl)methyl)piperazin-1-yl)-1-oxoisoindolin-2-yl)piperidine-2,6-dione], the GI50 in assay [1] (168 h, MOLM-13, day 7, CyQuant, read-out: MOLM13 GI50) was found to be 2.9 nM; in assay [1] (MOLM-13, comparison table with Ref-1, read-out: Growth GI50), 1.2 nM. The cell growth entry in assay [1] (MOLM-13 cells, FIG. 2) is given as “inhibit cell growth”. The “reduction of KAT2A in tumor” value in [2] was “significant reduction”. Further, the “epithelial GSEA” value in assay [3] is “significant upregulation”. In addition, in assay [4], the “microglial GSEA” value is reported as “significant upregulation”. The “reduction of KAT2B level” value in [5] and in [8] was “confirm such reduction” in each case. The “reduction of histone acetylation level” value in [6] is “confirm such reduction”; in assay [10] it was “confirmed such reductions”. The “reduction of KAT2B in tumor” value in assay [7] is reported as “significant reduction”. The tumor growth inhibition in [9] is 70%. Besides, the “induction of differentiation (CD86)” value in [11] is “induce differentiation (e.g., monocytic differentiation as assessed using CD86)”.

These data come from patent US20260306640A1, “TECHNOLOGIES TARGETING CELL STATES” (Auron Therapeutics, Inc., priority 2023, published 2026).
